Data on two compounds can be found in patent publication US5484934A, “Isothiazole derivatives, a process for production thereof and uses thereof” (Nihon Nohyaku Co., Ltd., priority 1992, dated 1996).

One test has as its system Pyricularia oryzae. Put plainly: whole plant or invertebrate. The format is in vivo. The conditions noted are these: 168 h, read-out: Controlling effect Ps (rice blast).
The test system of test [1] is Cladosporium cladosporioides. Put plainly: Inhibition of hypha growth on malt extract agar, Cladosporium cladosporioides. The conditions noted are these: read-out: Controlling effect (growth inhibition rate) CLC.
Protocol: (§1) Each preparation to be tested was added to malt extract agar medium to adjust the concentration to 50 ppm, and the resulting mixture was dispensed into Petri dishes. As an inoculum, a prepared mycerial tuft of each test fungus was punched out together with agar by means of a 4-mm-diameter cork borer and inoculated on medium. The incubation temperature was adjusted to 28±2° .C (or 18±2° C. in the case of Selupula lacrymas).
(§2) The diameter of mycerial tuft was measured 2 to 10 days after the inoculation, and the inhibition rate of hypha growth (the following equation) was measured.
A further test relates to Trichoderma viride. Put plainly: Inhibition of hypha growth on malt extract agar, Trichoderma viride. To be noted: read-out: Controlling effect (growth inhibition rate) TRV.
Another test deals with Aspergillus niger. Put plainly: Inhibition of hypha growth on malt extract agar, Aspergillus niger. The conditions noted are these: read-out: Controlling effect (growth inhibition rate) ASN.
A further test deals with Coriolus versicolor. Put plainly: Inhibition of hypha growth on malt extract agar, Coriolus versicolor. In kind it is cell-based. To be noted: Trametes versicolor, 28±2° C., 2 to 10 days, read-out: Controlling effect (growth inhibition rate) COV.
In another test the test system is Alternaria mali. Put plainly: Inhibition of hypha growth on malt extract agar, Alternaria mali. The conditions noted are these: read-out: Controlling effect (growth inhibition rate) ALM.
The test system of test [2] is Pseudoperonospora cubensis. Put plainly: Controlling effect on cucumber Downy mildew. The format is in vivo. The conditions noted are these: 168 h, 200 ppm spray, inoculation after 24 hours, read-out: Controlling effect Pc (cucumber downy mildew).
Another test relates to Phytophthora infestants. Put plainly: whole plant or invertebrate. The conditions noted are these: 168 h; read-out: Controlling effect Pi (tomato late blight). In kind it is in vivo.
A further test has as its system Tyromyces palustris. Put plainly: Inhibition of hypha growth on malt extract agar, Tyromyces palustris. The conditions noted are these: read-out: Controlling effect (growth inhibition rate) TYP.
A further test concerns Botrytis cinerea. Put plainly: Controlling effect (curing effect) on cucumber gray mold. The format is in vivo. The conditions noted are these: 72 h, immersion of inoculated cotyledons, 15° C., read-out: Controlling effect Bc (cucumber gray mold). On the procedure: Controlling effect (curing effect) on cucumber gray mold The cotyledons of potted cucumber plants at the 1 leaf stage were cut off and each of them was inoculated with a mycelial tuft of gray mold fungus (Botrytis cinerea) cultured on PSA medium. After having been placed in a moist chamber at 15° C. for 24 hours, the cotyledons were immersed in a 200 ppm liquid chemical containing each compound of the present invention as active ingredient. […]

A further test relates to Chaetomium globosum. Put plainly: Inhibition of hypha growth on malt extract agar, Chaetomium globosum. To be noted: read-out: Controlling effect (growth inhibition rate) CHG.
The subject of another test is Fusarium oxysporum. Put plainly: Inhibition of hypha growth on malt extract agar, Fusarium oxysporum. To be noted: read-out: Controlling effect (growth inhibition rate) FUO.
The subject of a further test is Rhizopus nigricans. Put plainly: Inhibition of hypha growth on malt extract agar, Rhizopus nigricans. The conditions noted are these: Rhizopus stolonifer, read-out: Controlling effect (growth inhibition rate) RHS.
A further test concerns Serpula lacrymans. Put plainly: Inhibition of hypha growth on malt extract agar, Serpula lacrymans. The conditions noted are these: read-out: Controlling effect (growth inhibition rate) SEL.

Protocol for Aspergillus niger: as §1, §2
(§3) The controlling effect was evaluated according to the following criterion.
Protocol for Chaetomium globosum: as §1, §2, §3
Protocol for Serpula lacrymans: as §1, §2
Protocol for Tyromyces palustris: as §1, §2

As a reminder, the inhibition is how much of the control response was suppressed. For the compound `C=CCOc1nsc(S(C)(=O)=O)c1C#N` [Compound 22], the pest or weed control at 200 ppm in the test with Pyricularia oryzae lay in the range of 95 to 100%; in test [2], 80 to 94%; in the test on Phytophthora infestants it was 95 to 100%; in the test with Botrytis cinerea, 0 to 59%. The inhibition at 50 ppm is 100% in test [1]; 85 to 99% in the test with Trichoderma viride; 85 to 99% with Aspergillus niger; 100% in the test on Coriolus versicolor; 85 to 99% in the test on Alternaria mali; 100% with Tyromyces palustris. Further, the inhibition at 50 ppm was 55 to 84% with Chaetomium globosum, 85 to 99% with Fusarium oxysporum, 85 to 99% with Rhizopus nigricans and 100% with Serpula lacrymans.

On to `C#CCOc1nsc(S(=O)(=O)C(F)F)c1C#N` [Compound 148], for which the pest or weed control at 200 ppm fell in the range of 95 to 100% in the test with Pyricularia oryzae, 80 to 94% in [2], 95 to 100% with Phytophthora infestants and 60 to 79% in the test on Botrytis cinerea. The inhibition at 50 ppm (in [1]; in the test with Trichoderma viride; in the test on Aspergillus niger; in the test on Coriolus versicolor; with Alternaria mali; with Tyromyces palustris) was 100% each time. In addition, the inhibition at 50 ppm with Chaetomium globosum, with Fusarium oxysporum, with Rhizopus nigricans and with Serpula lacrymans was 100% in each case.
